Results reported in patent US8765802B2, “Kinase inhibitors, compositions thereof, and methods of use therewith” (Provid Pharmaceuticals, Inc., priority 2007, dated 2014).

Biological target: T1, Chk2 (Homo sapiens, UniProt O96017)
T1 construct: made in house; host or cells: E. coli BL21 Star (Invitrogen)
Experiment: Chk2 inhibitor IMAP assay (high-throughput Chk2 screening assay)
Assay type: biochemical
Conditions: IMAP fluorescence polarization assay, 10 μM ATP
Experimental: Compounds set forth in Table 1 were tested in the Chk2 inhibitor IMAP assay described herein in Example 6.84. […] The letters given for the Chk2 EC50 values in Table 1 represent the following ranges: A=<100 nM; B=100-300 nM; C=300-1000 nM; D=1-10 μM; and E>10 μM.
Compounds can be screened for Chk2 inhibitory activity using a high-throughput screening assay based in the immobilized metal ion affinity-based fluorescence polarization (IMAP) assay developed by Molecular Devices. This assay is based on the high affinity binding of phosphate by immobilized metal (MIII) coordination complexes on nanoparticles. A fluorescein-labeled peptide substrate is used as the substrate for the kinase activity of Chk2 in the assay. The IMAP binding reagent stops the kinase reaction. The binding of the binding reagent results in a change in the rate of molecular motion of the peptide and causes an increase in the fluorescence polarization value observed for the fluorescein label attached to the end of the peptide. Thus, inhibition of Chk2 would result in a decrease in fluorescence polarization compared to control.
A specific protocol for screening Compounds for Chk2 inhibitory activity follows.
A Compound is supplied at 1 mM in 0.5 μl DMSO on 384 well plates (such as Greiner or Corning). After thawing, 5 μl DMSO is added to the drug plate. The drug plate is then incubated for 10 minutes to solubilize the Compound. An additional 19.5 μl of reaction buffer (10× stock prepared using 100 mM Tris-HCl, 100 mM MgCl2, 1% BSA, pH 7.2, stored at 4° C.)+1 mM DDT is added to bring the Compound to 4× final concentration. A positive control is also prepared at 4× final concentration. The following control wells are used: less enzyme control (all reagents except enzyme; 5 μl/well), less Compound control (all reagents except Compound; 5 μl/well), positive control (all reagents plus staurosporine at a final concentration of 5 μM; 5 μl/well).
Reagents are then added in the following order to give the following final concentration: 2.5 μl ATP/Chk2tide (Molecular Devices) (10 μM/100 nM final concentration), 1.25 μl Compound (5 μM final concentration inf 5.5% DMSO), and 1.25 μl Chk2 (1:500, 2.4 μg/mL final concentration).
Plates are covered and incubated at room temperature for 60 minutes.
IMAP binding reagent (Molecular Devices) is diluted 1:400 into binding buffer (Molecular Devices). 15 μl of this solution is then added to all wells and the plates are covered and incubated for 30 minutes.
Plates are read using a Tecan Ultra under the fluorescence polarization mode. Gain is set to the less enzyme and less Compound wells for each plate. Excitation 485 nm, emmission 535 nm, Z position 12519 and flashes 5 are used as settings. Raw data from the Tecan reader is imported into an access database for analysis.

T1 sequence (O96017 whole entry): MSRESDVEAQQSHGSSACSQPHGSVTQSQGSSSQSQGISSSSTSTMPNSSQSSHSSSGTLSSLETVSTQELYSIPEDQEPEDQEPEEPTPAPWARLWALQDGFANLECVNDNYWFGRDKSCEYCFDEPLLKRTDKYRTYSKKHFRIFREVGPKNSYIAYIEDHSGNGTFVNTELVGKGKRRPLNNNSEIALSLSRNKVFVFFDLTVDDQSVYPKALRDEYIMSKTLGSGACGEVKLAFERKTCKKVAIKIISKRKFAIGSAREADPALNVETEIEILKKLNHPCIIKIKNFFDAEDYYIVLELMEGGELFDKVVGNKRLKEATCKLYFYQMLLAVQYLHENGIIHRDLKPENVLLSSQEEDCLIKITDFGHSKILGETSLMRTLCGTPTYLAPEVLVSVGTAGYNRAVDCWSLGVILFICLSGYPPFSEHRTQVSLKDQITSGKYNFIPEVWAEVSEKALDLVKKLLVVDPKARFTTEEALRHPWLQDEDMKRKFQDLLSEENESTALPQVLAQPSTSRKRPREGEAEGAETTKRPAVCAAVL

SMILES | EC50
CCC/C(=N/NC(=N)N)c1ccc(NC(=O)c2cc3cc(OC)ccc3[nH]2)cc1 (single isomer, unassigned) [Compound 24] | < 100 nM
CCC/C(=N/NC(=N)N)c1ccc(NC(=O)c2cc3cc(OC)ccc3[nH]2)cc1 (single isomer, unassigned) [Compound 26] | 300 to 1000 nM
CCC/C(=N\NC(=N)N)c1ccc(NC(=O)Nc2ccc(/C(C)=N/NC(=N)N)cc2)cc1 [Compound 1] | < 100 nM
C/C(=N\NC(=N)N)c1ccc(NC(=O)c2c[nH]c3ccccc23)cc1 [Compound 2] | 1000 to 10000 nM
CCCC(=NNC(=N)N)c1ccc(NC(=O)Nc2ccc(C(CCC)=NNC(=N)N)cc2)cc1 [Compound 3] | < 100 nM
C/C(=N\NC(=N)N)c1ccc(NC(=O)Nc2ccc(/C(C)=N/NC(=N)N)c(C)c2)cc1 [Compound 4] | 100 to 300 nM
CC(=NNC(=N)N)c1ccc(NC(=O)Nc2ccc3c(c2)CCC(C)C3=NNC(=N)N)cc1 (stereo not shown) [Compound 5] | 300 to 1000 nM
CC(=NNC(=N)N)c1ccc(NC(=O)Nc2ccc3c(c2)CCC3=NNC(=N)N)cc1 [Compound 6] | 300 to 1000 nM
C/C(=N\NC(=N)N)c1ccc(NC(=O)c2cc3ccccc3[nH]2)cc1 [Compound 7] | 300 to 1000 nM
C/C(=N\NC(=N)N)c1ccc(NC(=O)c2cc3ccccc3o2)cc1 [Compound 8] | 300 to 1000 nM
C/C(=N\NC(=N)N)c1ccc(NC(=O)c2cc3cc(C)ccc3[nH]2)cc1 [Compound 9] | 100 to 300 nM
COc1ccc2[nH]c(C(=O)Nc3ccc(/C(C)=N/NC(=N)N)cc3)cc2c1 [Compound 10] | < 100 nM
C/C(=N\NC(=N)N)c1ccc(NC(=O)c2cc3cc(O)ccc3[nH]2)cc1 [Compound 11] | 300 to 1000 nM
C/C(=N/NC(=N)N)c1ccc(NC(=O)Nc2ccc(NC(=O)/C(C)=N/NC(=N)N)cc2)cc1 [Compound 12] | 300 to 1000 nM
C/C(=N/N=C(\N)c1ccccn1)c1ccc(NC(=O)Nc2ccc(/C(C)=N/N=C(\N)c3ccccn3)cc2)cc1 [Compound 13] | 300 to 1000 nM
C/C(=N/NC(=N)N)c1ccc(NC(=O)Nc2ccc(/C(C)=N/N=C(\N)c3ccccn3)cc2)cc1 [Compound 14] | 300 to 1000 nM
C/C(=N\NC1=NCCN1)c1ccc(NC(=O)Nc2ccc(/C(C)=N/NC3=NCCN3)cc2)cc1 [Compound 15] | < 100 nM
C/C(=N\NC(=N)N)c1ccc(NC(=O)Nc2ccc(/C(C)=N/NC3=NCCN3)cc2)cc1 [Compound 16] | < 100 nM
C/C(=N\NC(=N)N)c1ccc(NC(=O)c2cc3cc(/C(C)=N/NC(=N)N)ccc3[nH]2)cc1 [Compound 17] | < 100 nM
COc1ccc2[nH]c(C(=O)Nc3ccc(/C(C)=N/NC4=NCCN4)cc3)cc2c1 [Compound 19] | 100 to 300 nM

SMILES | EC50
C/C(=N\NC(=N)N)c1ccc(NC(=O)Nc2ccc(C#N)cc2)cc1 [Compound 20] | < 100 nM
CNC(=O)Oc1ccc2[nH]c(C(=O)Nc3ccc(/C(C)=N\NC(=N)N)cc3)cc2c1 [Compound 21] | 100 to 300 nM
C/C(=N\NC1=NCCN1)c1ccc(NC(=O)c2cc3cccc([N+](=O)[O-])c3[nH]2)cc1 [Compound 22] | < 100 nM
COc1ccc2[nH]c(C(=O)Nc3ccc(/C(C)=N/NC4=NCCN4)cc3)cc2c1 [Compound 23] | < 100 nM
C/C(=N\NC(=N)N)c1ccc(NC(=O)c2cc3cc(N)ccc3[nH]2)cc1 [Compound 25] | 300 to 1000 nM
C/C(=N\NC(=N)N)c1ccc(NC(=O)c2cc3cc(C(N)=O)ccc3[nH]2)cc1 [Compound 27] | 100 to 300 nM
COc1cc2cc(C(=O)Nc3ccc(/C(C)=N/NC(=N)N)cc3)[nH]c2cc1OCc1ccccc1 [Compound 29] | 1000 to 10000 nM
C/C(=N/NC(=N)N)c1ccc(NC(=O)c2[nH]c3ccccc3c2Br)cc1 [Compound 30] | 300 to 1000 nM
COc1cccc2cc(C(=O)Nc3ccc(/C(C)=N/NC(=N)N)cc3)oc12 [Compound 31] | 300 to 1000 nM
C/C(=N\NC(=N)N)c1ccc(NC(=O)c2cc3cc(Br)ccc3o2)cc1 [Compound 32] | 1000 to 10000 nM
C/C(=N/NC(=N)N)c1ccc(NC(=O)c2cc3cc(OC(F)(F)F)ccc3[nH]2)cc1 [Compound 33] | 1000 to 10000 nM
C/C(=N/NC(=N)N)c1ccc(NC(=O)c2cc3cc(OCc4ccccc4)ccc3[nH]2)cc1 [Compound 34] | 1000 to 10000 nM
CC(=NNC(=N)N)c1ccc(NC(=O)c2cc3cc([N+](=O)[O-])ccc3[nH]2)cc1 [Compound 35] | > 10000 nM
CC(=O)c1ccc(NC(=O)Nc2ccc(/C(C)=N/NC(=N)N)cc2)cc1 [Compound 36] | 100 to 300 nM
C/C(=N\NC(=N)N)c1ccc(NC(=O)Nc2ccc(Br)cc2)cc1 [Compound 37] | 100 to 300 nM
C/C(=N\NC(=N)N)c1ccc(NC(=O)Nc2ccc(I)cc2)cc1 [Compound 38] | 300 to 1000 nM
C/C(=N\NC(=N)N)c1ccc(NC(=O)Nc2ccc(NC(=O)Nc3ccc(/C(C)=N/NC(=N)N)cc3)cc2)cc1 [Compound 39] | < 100 nM
COc1cc(OC)c2cc(C(=O)Nc3ccc(/C(C)=N/NC(=N)N)cc3)[nH]c2c1 [Compound 40] | 1000 to 10000 nM
COc1ccc2[nH]nc(C(=O)Nc3ccc(/C(C)=N/NC(=N)N)cc3)c2c1 [Compound 41] | 1000 to 10000 nM
COc1ccc2[nH]nc(C(=O)Nc3ccc(/C(C)=N/NC(=N)N)cc3)c2c1 [Compound 42] | > 10000 nM

Further lines, results first:

EC50 | SMILES
< 100 nM | CCCC(=NNC(=N)N)c1ccc2[nH]c(C(=O)Nc3ccc4cc[nH]c4c3)cc2c1 (single isomer, unassigned) [Compound 112]
300 to 1000 nM | CCCC(=NNC(=N)N)c1ccc2[nH]c(C(=O)Nc3ccc4cc[nH]c4c3)cc2c1 (single isomer, unassigned) [Compound 113]
< 100 nM | CC(C)CC(=NNC(=N)N)c1ccc2[nH]c(C(=O)Nc3ccc4cc[nH]c4c3)cc2c1 (single isomer, unassigned) [Compound 123]
1000 to 10000 nM | CC(C)CC(=NNC(=N)N)c1ccc2[nH]c(C(=O)Nc3ccc4cc[nH]c4c3)cc2c1 (single isomer, unassigned) [Compound 124]
1000 to 10000 nM | COc1ccc2nc(NC(=O)c3ccc(/C(C)=N/NC(=N)N)cc3)sc2c1 [Compound 43]
> 10000 nM | COc1cccc2sc(NC(=O)c3ccc(/C(C)=N\NC(=N)N)cc3)nc12 [Compound 44]
1000 to 10000 nM | COc1cc2nc(NC(=O)c3ccc(/C(C)=N\NC(=N)N)cc3)sc2cc1OC [Compound 45]
1000 to 10000 nM | COc1cc2nc(NC(=O)c3ccc(/C(C)=N/NC(=N)N)cc3)sc2cc1OC [Compound 46]
300 to 1000 nM | C/C(=N\NC(=N)N)c1ccc(NC(=O)c2ccc(-c3cnc(N)nc3)cc2)cc1 [Compound 47]
> 10000 nM | C/C(=N\NC(=N)N)c1ccc(NC(=O)Nc2ccc(-c3csc(NN)n3)cc2)cc1 [Compound 48]
100 to 300 nM | C/C(=N\NC(=N)N)c1ccc2[nH]c(C(=O)Nc3ccc(N4CCNCC4)cc3)cc2c1 [Compound 49]
1000 to 10000 nM | C/C(=N\NC(=N)N)c1ccc(NC(=O)Nc2ccc(C)cc2)cc1 [Compound 50]
1000 to 10000 nM | C/C(=N\NC(=N)N)c1ccc(NC(=O)Nc2ccc(/C(=N/NC(=N)N)C(C)C)cc2)cc1 [Compound 51]
1000 to 10000 nM | C/C(=N\NC(=N)N)c1ccc(NC(=O)c2cc3ccccc3o2)cc1 [Compound 52]
1000 to 10000 nM | CC/C(=N\NC(=N)N)c1ccc(NC(=O)c2ccco2)cc1 [Compound 53]
1000 to 10000 nM | C/C(=N\NC(=N)N)c1ccc(NC(=O)Nc2ccc(/C(=N/NC(=N)N)c3ccccc3)cc2)cc1 [Compound 54]
> 10000 nM | C/C(=N\NC(=N)N)c1ccc(NC(=O)Nc2ccc(/C(=N/NC(=N)N)c3ccccc3)cc2)cc1 [Compound 55]
1000 to 10000 nM | COC(=O)c1ccc(NC(=O)Nc2ccc(/C(C)=N/NC(=N)N)cc2)cc1 [Compound 56]
1000 to 10000 nM | C/C(=N\NC(=N)N)c1ccc(NC(=O)Nc2ccc(Cl)cc2)cc1 [Compound 57]
1000 to 10000 nM | C/C(=N\NC(=N)N)c1ccc(NC(=O)c2cc3ccccc3cn2)cc1 [Compound 58]
1000 to 10000 nM | C/C(=N/NC(=N)N)c1ccc(NC(=O)Nc2ccc(/C(C)=N/NC(=N)N)cc2)c2ccccc12 [Compound 60]
> 10000 nM | C/C(=N/NC(=N)N)c1ccc(NC(=O)Nc2ccc(/C(C)=N/NC(=N)N)cc2)cc1C [Compound 61]
> 10000 nM | CC(=NNC(=N)N)c1ccc(NC(=O)Nc2ccc(C(C)CNC(=N)N)cc2)cc1 (stereo not shown) [Compound 62]
1000 to 10000 nM | CSC(=N)N/N=C(\C)c1ccc(NC(=O)Nc2ccc(/C(C)=N/NC(=N)SC)cc2)cc1 [Compound 63]
